The text below walks through data of patent US7622251B2, “Molecular indicators of breast cancer prognosis and prediction of treatment response” (Genomic Health, Inc., priority 2004, dated 2009).

The test system of experiment [1] is ESR1 positive, node-negative breast cancer. As to the kind of experiment: Recurrence Score validation trial, patients treated with TAM alone in NSABP Study B-14: distant recurrence at 10 years. In kind it is in vivo, human. The protocol: To test the clinical validity of this Recurrence Score test and algorithm, a blinded clinical trial with prospectively identified endpoints was carried out. This validation trial focused on patients treated with TAM alone in the randomized and registration arms of the National Surgical Adjuvant Breast and Bowel Project (NSABP) Study B-14 clinical trial population (Fisher B, Costantino J P, Redmond C K, et al: Endometrial cancer in TAM-treated breast cancer patients: Findings from the National Surgical Adjuvant Breast and Bowel Project (NSABP) B-14. J Natl Cancer Inst 86:527-537 (1994)). Genomic Health, Inc. and the NSABP carried out the 21 gene RT-PCR assay on 668 breast cancer tissue specimens derived from these patients and calculated a Recurrence Score for each patient.
Pre-specified cut-off points of Recurrence Score classified patients into one of three categories: low risk, intermediate risk, and high risk of distant disease recurrence. The proportion of the 668 patients categorized as low, intermediate, and high risk by the RT-PCR assay were 51%, 23%, and 27%, respectively. […] In a multivariate Cox model relating distant recurrence to Recurrence Score, age, and tumor size, Recurrence Score provides significant (p<0.001) predictive power that goes beyond age and tumor size. This study validated the Recurrence Score as a powerful predictor of distant recurrence in patients without involved nodes who have tumors that are ESR1 positive and treated with TAM (Paik et al. Breast Cancer Research and Treatment 82, Supplement 1: page S10, 2003 (Abstract 16).

Experiment [2] relates to ER-positive invasive breast cancer with negative axillary lymph nodes. As to the kind of experiment: NSABP B-14 placebo and TAM arms combined: Cox interaction of treatment effect with gene expression, distant recurrence-free survival. The experiment is classed as in vivo, human. To be noted: for H.R., treatment by gene expression interaction: placebo and TAM combined. The method, then: Endometrial cancer in TAM-treated breast cancer patients: Findings from the National Surgical Adjuvant Breast and Bowel Project (NSABP) B-14. J Natl Cancer Inst 86:527-537(1994). • 1.1 Fixed paraffin-embedded breast tumor tissue samples from up to 450 patients, who were treated at study entry with placebo alone in the B-14 study, were analyzed. For each evaluable patient, the expression of 16 cancer-related genes and 5 reference genes was quantitatively assessed by RT-PCR. […] Contralateral disease, other second primary cancers, and deaths prior to distant recurrence will be considered censoring events. […] Gene expression values were normalized relative to the mean of the reference genes. For each cancer-related gene, cycle threshold (CT) measurements were obtained by RT-PCR, and normalized relative to a set of five reference genes listed in Table 1. […] For the purpose of identifying treatment predictive genes in breast cancer, our primary objective was to explore the relation between gene expression and DRFS and OS in treated patients. For such analyses, data from both treated and untreated patient arms were utilized in order to discriminate treatment preditive genes from purely prognostic genes. For identifying treatment predictive genes for tamoxifen (TAM) response, both placebo and TAM-treated patients were included from NSABP Study B-14. In both studies, Cox proportional hazards models were utilized to examine the interaction between the treatment effect and gene expression. An interaction between treatment and gene expression exists if the treatment effect depends on the gene expression level; that is, if gene expression is a treatment predictive factor. Again, the likelihood ratio test was used to identify statistically significant predictive treatment genes by comparing the reduced model excluding the gene expression by treatment interaction versus the competing full model including the gene expression by treatment interaction.

In the case of `CC/C(=C(\c1ccccc1)c1ccc(OCCN(C)C)cc1)c1ccccc1` [TAM, tamoxifen], the “Kaplan-Meier estimate (95% confidence interval) of rate of distant recurrence at 10 years” value is given as 30.5% (23.6%, 37.4%) in experiment [1] (high risk group by Recurrence Score); 14.3% (8.3%, 20.3%) in experiment [1] (intermediate risk group by Recurrence Score); 6.8% (4.0%, 9.6%) in experiment [1] (low risk group by Recurrence Score). Besides, the “decrease of H.R. for recurrence of TAM-treated patients” value in experiment [2] (for every two fold increase in expression of ESR1, 95% confidence limits ~12% to ~37%) is recorded as “about 25%”. Moreover, the “absolute benefit of TAM treatment” value is recorded as “little benefit” in experiment [2] (patients in the lowest quartile of ESR1 expression (FIG. 3)); “much less impact” in experiment [2] (patients in the lowest tertile of ESR1 expression (FIG. 2)); “substantial absolute benefit” in experiment [2] (two-thirds of patients who express ESR1 at the highest levels (tertiles, FIG. 2)). In addition, the “H.R., treatment by gene expression interaction” value in experiment [2] (variable IntBCL2_2) was determined as 0.7697; in experiment [2] (variable IntESR1 Group) it was 0.7573; in experiment [2] (variable IntESR1_1), 0.7438; in experiment [2] (variable IntSCUBE2_2), 0.8058; in experiment [2] (variable IntTFRC_3), 1.944.
